Data on 4 compounds can be found in patent US12077503B2, “Substituted cyclic amides and their use as herbicides” (FMC CORPORATION, priority 2015, dated 2024).

Assay type in all cases: in vivo
One assay relates to Kochia (Kochia scoparia). Nature of the assay: Test A preemergence. The settings on record: Bassia scoparia, pre-emergence, 240 h; for pest or weed control at 125 g/ha: 125 g ai/ha, preemergence, 0 to 100 scale where 0 is no effect and 100 is complete control, read-out: Kochia plant response rating; for pest or weed control at 500 g/ha: 500 g ai/ha, Preemergence, visual injury vs untreated controls after approximately 10 d, read-out: Kochia plant response rating (0 to 100 scale where 0 is no effect and 100 is complete control). The essentials: (§1)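 Visual injury scores from 0, no effect, to 100, complete control, were assigned versus untreated controls roughly 10 d after treatment in the greenhouse. Test chemicals, formulated with surfactant in a non-phytotoxic solvent, were applied to planted seeds as a preemergence soil spray or postemergence to one- to two-leaf plants 2 to 10 cm tall, in loam–sand soil.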

Assay [1] has as its system barnyardgrass (Echinochloa crus-galli). Description: Test A preemergence. The settings on record: Echinochloa crus-galli, pre-emergence, 240 h; for pest or weed control at 125 g/ha: 125 g ai/ha, preemergence, 0 to 100 scale where 0 is no effect and 100 is complete control, read-out: Barnyardgrass plant response rating; for pest or weed control at 500 g/ha: 500 g ai/ha, Preemergence, visual injury vs untreated controls after approximately 10 d, read-out: Barnyardgrass plant response rating (0 to 100 scale where 0 is no effect and 100 is complete control). The essentials:
as §1

Assay [2] has as its system giant foxtail (Setaria faberii). Nature of the assay: Test A preemergence. The conditions noted are these: Setaria faberi, pre-emergence, 240 h; for pest or weed control at 125 g/ha: 125 g ai/ha, preemergence, 0 to 100 scale where 0 is no effect and 100 is complete control, read-out: Foxtail, Giant plant response rating; for pest or weed control at 500 g/ha: 500 g ai/ha, Preemergence, visual injury vs untreated controls after approximately 10 d, read-out: Foxtail, Giant plant response rating (0 to 100 scale where 0 is no effect and 100 is complete control). Summed up:
as §1

For assay [3], the system named is pigweed (Amaranthus retroflexus). Description: Test A preemergence. The conditions noted are these: Amaranthus retroflexus, pre-emergence, 240 h; for pest or weed control at 125 g/ha: 125 g ai/ha, preemergence, 0 to 100 scale where 0 is no effect and 100 is complete control, read-out: Pigweed plant response rating; for pest or weed control at 500 g/ha: 500 g ai/ha, Preemergence, visual injury vs untreated controls after approximately 10 d, read-out: Pigweed plant response rating (0 to 100 scale where 0 is no effect and 100 is complete control).

Assay [4] deals with ragweed (common ragweed, Ambrosia elatior). Description: Test A preemergence. The settings on record: Ambrosia artemisiifolia, pre-emergence, 240 h; for pest or weed control at 125 g/ha: 125 g ai/ha, preemergence, 0 to 100 scale where 0 is no effect and 100 is complete control, read-out: Ragweed plant response rating; for pest or weed control at 500 g/ha: 500 g ai/ha, Preemergence, visual injury vs untreated controls after approximately 10 d, read-out: Ragweed plant response rating (0 to 100 scale where 0 is no effect and 100 is complete control). Summed up:
as §1

Assay [5] concerns ryegrass, Italian (Italian ryegrass, Lolium multiflorum). Nature of the assay: Test A preemergence. The conditions noted are these: Lolium multiflorum, pre-emergence, 240 h; for pest or weed control at 125 g/ha: 125 g ai/ha, preemergence, 0 to 100 scale where 0 is no effect and 100 is complete control, read-out: Ryegrass, Italian plant response rating; for pest or weed control at 500 g/ha: 500 g ai/ha, Preemergence, visual injury vs untreated controls after approximately 10 d, read-out: Ryegrass, Italian plant response rating (0 to 100 scale where 0 is no effect and 100 is complete control). The essentials: as §1

Assay [6] deals with Galium (catchweed bedstraw, Galium aparine). Nature of the assay: Test A postemergence. The settings on record: Galium, post-emergence, 240 h, 125 g ai/ha, postemergence, visual injury rating after approximately 10 d; read-out: Galium plant response rating (0 to 100 scale, 0 no effect, 100 complete control). Summed up:
as §1

The test system of assay [7] is barnyardgrass (Echinochloa crus-galli). Nature of the assay: Test A postemergence. The conditions noted are these: Echinochloa crus-galli, post-emergence, 240 h, 125 g ai/ha, postemergence, visual injury rating after approximately 10 d; read-out: Barnyardgrass plant response rating (0 to 100 scale, 0 no effect, 100 complete control). The essentials: as §1
The test system of assay [8] is blackgrass (Alopecurus myosuroides). Description: Test A postemergence. The conditions noted are these: Alopecurus myosuroides, post-emergence, 240 h, 125 g ai/ha, postemergence, visual injury rating after approximately 10 d; read-out: Blackgrass plant response rating (0 to 100 scale, 0 no effect, 100 complete control). Summed up: as §1
The next assay relates to corn (Zea mays). Nature of the assay: Test A postemergence. The settings on record: Zea mays, post-emergence, 240 h, 125 g ai/ha, postemergence, visual injury rating after approximately 10 d; read-out: Corn plant response rating (0 to 100 scale, 0 no effect, 100 complete control). The essentials:
as §1

For assay [9], the system named is giant foxtail (Setaria faberii). Nature of the assay: Test A postemergence. The conditions noted are these: Setaria faberi, post-emergence, 240 h, 125 g ai/ha, postemergence, visual injury rating after approximately 10 d; read-out: Foxtail, Giant plant response rating (0 to 100 scale, 0 no effect, 100 complete control). Summed up:
as §1

Assay [10] concerns pigweed (Amaranthus retroflexus). Nature of the assay: Test A postemergence. The settings on record: Amaranthus retroflexus, post-emergence, 240 h, 125 g ai/ha, postemergence, visual injury rating after approximately 10 d; read-out: Pigweed plant response rating (0 to 100 scale, 0 no effect, 100 complete control). Summed up: as §1
The test system of assay [11] is ragweed (common ragweed, Ambrosia elatior). Description: Test A postemergence. The conditions noted are these: Ambrosia artemisiifolia, post-emergence, 240 h, 125 g ai/ha, postemergence, visual injury rating after approximately 10 d; read-out: Ragweed plant response rating (0 to 100 scale, 0 no effect, 100 complete control). The essentials: as §1
Assay [12] relates to ryegrass, Italian (Italian ryegrass, Lolium multiflorum). Description: Test A postemergence. The conditions noted are these: Lolium multiflorum, post-emergence, 240 h, 125 g ai/ha, postemergence, visual injury rating after approximately 10 d; read-out: Ryegrass, Italian plant response rating (0 to 100 scale, 0 no effect, 100 complete control). The essentials: as §1
The subject of assay [13] is wheat (Triticum aestivum). Description: Test A postemergence. The conditions noted are these: Triticum aestivum, post-emergence, 240 h, 125 g ai/ha, postemergence, visual injury rating after approximately 10 d; read-out: Wheat plant response rating (0 to 100 scale, 0 no effect, 100 complete control). The essentials:
as §1

Take `COc1c(F)ccc([C@H]2CNC(=O)[C@@H]2C(=O)Nc2ccccc2C(F)(F)F)c1Cl` [Compound 891]: the pest or weed control at 125 g/ha in the assay on Kochia (Kochia scoparia) came out at 0%; in assay [1] it was 60%; in assay [2], 80%; in assay [3] it was 0%; in assay [4], 0%; in assay [5] it was 0%. For the same compound, the pest or weed control at 125 g/ha in [6] was 30%; in assay [7], 50%; in assay [8], 0%; in [9], 40%; in assay [10], 0%; in assay [11], 0%. Moreover, in assay [12], the pest or weed control at 125 g/ha was 0%. Further, the pest or weed control at 500 g/ha was determined as 20% in the assay with Kochia (Kochia scoparia); 80% in assay [1]; 90% in [2]; 0% in [3]; 0% in assay [4]; 30% in [5]. The values for the plant injury at 125 g/ha (in the assay on corn (Zea mays); in [13]) were 20% and 0%, respectively.

On to `CSc1ccccc1NC(=O)[C@H]1C(=O)NC[C@@H]1c1cccc2c1OC(F)(F)O2` [Compound 865], for which the pest or weed control at 125 g/ha (in the assay on Kochia (Kochia scoparia); in [1]; in [2]; in [3]; in [4]; in assay [5]) was 0% each time. Further, the pest or weed control at 125 g/ha in [6], in [7], in assay [8], in assay [9], in assay [10] and in [11] was 0% in each case. In addition, the pest or weed control at 125 g/ha in assay [12] was 0%. For the same compound, the pest or weed control at 500 g/ha is 70% in [1]; 80% in assay [2]; 0% in [3]; 0% in assay [4]; 0% in assay [5]. For the same compound, the plant injury at 125 g/ha (in the assay with corn (Zea mays); in assay [13]) was 0% throughout.

Turning to `Cc1cc(F)cc([C@H]2CNC(=O)[C@@H]2C(=O)Nc2ccc(F)c(F)c2F)c1` [Compound 848], the pest or weed control at 125 g/ha came to 40% in the assay on Kochia (Kochia scoparia); 90% in [1]; 90% in assay [2]; 40% in [3]; 0% in [4]; 40% in assay [5]. Besides, the pest or weed control at 125 g/ha is 30% in assay [6]; 90% in assay [7]; 0% in assay [8]; 70% in [9]; 0% in assay [10]; 0% in [11]. For the same compound, in assay [12], the pest or weed control at 125 g/ha amounted to 0%. Also, the pest or weed control at 500 g/ha in the assay on Kochia (Kochia scoparia) stood at 70%; in assay [1], 90%; in assay [2] it was 90%; in assay [3], 50%; in [4], 30%; in assay [5], 50%. The plant injury at 125 g/ha (with corn (Zea mays); in assay [13]) was 0% throughout.

`O=C1NC[C@H](c2ccc(F)c(OC(F)(F)C(F)(F)Br)c2)[C@H]1C(=O)Nc1cccc(F)c1F` (racemic) [Compound 914]: the pest or weed control at 125 g/ha in the assay with Kochia (Kochia scoparia) is 60%; in assay [1] it was 70%; in assay [2] it was 90%; in [3], 90%; in [4], 0%; in assay [5] it was 0%. Also, the pest or weed control at 125 g/ha turned out to be 60% in assay [6]; 0% in assay [7]; 0% in assay [8]; 70% in assay [9]; 80% in assay [10]; 20% in assay [11]. Further, in assay [12], the pest or weed control at 125 g/ha amounted to 0%. For the same compound, the pest or weed control at 500 g/ha in the assay with Kochia (Kochia scoparia) was 60%; in assay [1] it was 90%; in assay [2] it was 90%; in assay [3] it was 90%; in assay [4], 0%; in [5], 60%. Moreover, the plant injury at 125 g/ha (in the assay on corn (Zea mays); in [13]) was 0% throughout.
